Measured values as given in patent US12077503B2, “Substituted cyclic amides and their use as herbicides” (FMC CORPORATION, priority 2015, dated 2024).

Experiments:
Format in all cases: in vivo
[1] = system: giant foxtail (Setaria faberii); assay: Test A preemergence; details: for Plant response rating, Foxtail, Giant: 125 g ai/ha, preemergence, 0 to 100 scale (0 no effect, 100 complete control); for Foxtail, Giant plant response rating (0 to 100 scale): Preemergence, 500 g ai/ha, 0 is no effect, 100 is complete control
Text: (§1) Seeds of plant species selected from barnyardgrass (Echinochloa crus-galli), Kochia (Kochia scoparia), ragweed (common ragweed, Ambrosia elatior), ryegrass, Italian (Italian ryegrass, Lolium multiflorum), crabgrass, large (Digitaria sanguinalis), giant foxtail (Setaria faberii), green foxtail (Setaria viridis), morningglory (Ipomoea spp.), pigweed (Amaranthus retroflexus), velvetleaf (Abutilon theophrasti), wheat (Triticum aestivum), and corn (Zea mays) were planted into a blend of loam soil and sand and treated preemergence with a directed soil spray using test chemicals formulated in anon-phytotoxic solvent mixture which included a surfactant.
(§2) At the same time, plants selected from these crop and weed species and also blackgrass (Alopecurus myosuroides), and Galium (catchweed bedstraw, Galium aparine) were planted in pots containing the same blend of loam soil and sand and treated with postemergence applications of test chemicals formulated in the same manner. Plants ranged in height from 2 to 10 cm and were in the one- to two-leaf stage for the postemergence treatment. Treated plants and untreated controls were maintained in a greenhouse for approximately 10 d, after which time all treated plants were compared to untreated controls and visually evaluated for injury. Plant response ratings, summarized in Table A, are based on a 0 to 100 scale where 0 is no effect and 100 is complete control. A dash (-) response means no test result.

Kochia (Kochia scoparia) [2] = assay: Test A preemergence; details: for Plant response rating, Kochia: 125 g ai/ha, preemergence, 0 to 100 scale (0 no effect, 100 complete control); for Kochia plant response rating (0 to 100 scale): Preemergence, 500 g ai/ha, 0 is no effect, 100 is complete control
Text: as §1, §2

[3] = system: ragweed (common ragweed, Ambrosia elatior); assay: Test A preemergence; details: for Plant response rating, Ragweed: 125 g ai/ha, preemergence, 0 to 100 scale (0 no effect, 100 complete control); for Ragweed plant response rating (0 to 100 scale): Preemergence, 500 g ai/ha, 0 is no effect, 100 is complete control
Text: as §1, §2

[4] = system: ryegrass, Italian (Italian ryegrass, Lolium multiflorum); assay: Test A preemergence; details: for Plant response rating, Ryegrass, Italian: 125 g ai/ha, preemergence, 0 to 100 scale (0 no effect, 100 complete control); for Ryegrass, Italian plant response rating (0 to 100 scale): Preemergence, 500 g ai/ha, 0 is no effect, 100 is complete control
Text: as §1, §2

[5] = system: pigweed (Amaranthus retroflexus); assay: Test A preemergence; details: for Plant response rating, Pigweed: 125 g ai/ha, preemergence, 0 to 100 scale (0 no effect, 100 complete control); for Pigweed plant response rating (0 to 100 scale): Preemergence, 500 g ai/ha, 0 is no effect, 100 is complete control
Text: as §1, §2

[6] = system: barnyardgrass (Echinochloa crus-galli); assay: Test A preemergence; details: for Plant response rating, Barnyardgrass: 125 g ai/ha, preemergence, 0 to 100 scale (0 no effect, 100 complete control); for Barnyardgrass plant response rating (0 to 100 scale): Preemergence, 500 g ai/ha, 0 is no effect, 100 is complete control
Text: as §1, §2

[7] = system: ducksalad (Heteranthera limosa); assay: Test B flooded paddy test; details: Flood, 250 g ai/ha; 0 to 100 scale where 0 is no effect and 100 is complete control; 13 to 15 d
Protocol: (§3) Plant species in the flooded paddy test selected from rice (Oryra sativa), sedge, umbrella (small-flower umbrella sedge, Cyperus difformis), ducksalad (Heteranthera limosa), and barnyardgrass (Echinochloa crus-galli) were grown to the 2-leaf stage for testing. At time of treatment, test pots were flooded to 3 cm above the soil surface, treated by application of test compounds directly to the paddy water, and then maintained at that water depth for the duration of the test. Treated plants and controls were maintained in a greenhouse for 13 to 15 d, after which time all species were compared to controls and visually evaluated. Plant response ratings, summarized in Table B, are based on a scale of 0 to 100 where 0 is no effect and 100 is complete control. A dash (-) response means no test result.

[8] = system: sedge, umbrella (small-flower umbrella sedge, Cyperus difformis); assay: Test B flooded paddy test; details: Flood, 250 g ai/ha; 0 to 100 scale where 0 is no effect and 100 is complete control; 13 to 15 d
Protocol: as §3

rice (Oryra sativa) = assay: Test B flooded paddy test; details: Flood, 250 g ai/ha; 0 to 100 scale where 0 is no effect and 100 is complete control; 13 to 15 d
Protocol: as §3

[9] = system: barnyardgrass (Echinochloa crus-galli); assay: Test B flooded paddy test; details: Flood, 250 g ai/ha; 0 to 100 scale where 0 is no effect and 100 is complete control; 13 to 15 d
Protocol: as §3

[10] = system: Galium (catchweed bedstraw, Galium aparine); assay: Test A postemergence
Text: as §1, §2

[11] = system: giant foxtail (Setaria faberii); assay: Test A postemergence
Text: as §1, §2

[12] = system: blackgrass (Alopecurus myosuroides); assay: Test A postemergence
Text: as §1, §2

corn (Zea mays) = assay: Test A postemergence
Text: as §1, §2

Kochia (Kochia scoparia) [13] = assay: Test A postemergence
Text: as §1, §2

[14] = system: ragweed (common ragweed, Ambrosia elatior); assay: Test A postemergence
Text: as §1, §2

[15] = system: wheat (Triticum aestivum); assay: Test A postemergence
Text: as §1, §2

[16] = system: ryegrass, Italian (Italian ryegrass, Lolium multiflorum); assay: Test A postemergence
Text: as §1, §2

[17] = system: pigweed (Amaranthus retroflexus); assay: Test A postemergence
Text: as §1, §2

[18] = system: barnyardgrass (Echinochloa crus-galli); assay: Test A postemergence
Text: as §1, §2

[19] = 500 g ai/ha, postemergence, 0 to 100 scale, 0 no effect, 100 complete control
[20] = Postemergence, 125 g ai/ha, visual injury, 0 to 100 scale (0 no effect, 100 complete control), approx. 10 d

Compound	Plant response rating, Foxtail, Giant [1]	Foxtail, Giant plant response rating (0 to 100 scale) [1]	Plant response rating, Kochia (Kochia (Kochia scoparia) [2])	Kochia plant response rating (0 to 100 scale) (Kochia (Kochia scoparia) [2])	Plant response rating, Ragweed [3]	Ragweed plant response rating (0 to 100 scale) [3]	Plant response rating, Ryegrass, Italian [4]	Ryegrass, Italian plant response rating (0 to 100 scale) [4]	Plant response rating, Pigweed [5]	Pigweed plant response rating (0 to 100 scale) [5]	Plant response rating, Barnyardgrass [6]	Barnyardgrass plant response rating (0 to 100 scale) [6]	Plant response rating, Ducksalad [7]	Plant response rating, Sedge, Umbrella [8]	Plant response rating, Rice (rice (Oryra sativa))	Plant response rating, Barnyardgrass [9]	Plant response rating, Galium [10, 19]	Plant response rating, Galium [10, 20]	Plant response rating, Foxtail, Giant [11, 19]	Plant response rating, Foxtail, Giant [11, 20]	further results
Cc1ccc(C2CNC(=O)C2C(=O)Nc2ccc(F)c(F)c2F)cc1F (racemic) [Compound 371]	90	90	20	60	30	40	0	20	0	20	90	90	100	0	20	60	30	30	90	50	Plant response rating, Blackgrass [12, 19]: 60; Plant response rating, Blackgrass [12, 20]: 30; Plant response rating, Corn (corn (Zea mays); [19]): 60; Plant response rating, Corn (corn (Zea mays); [20]): 20; Plant response rating, Kochia (Kochia (Kochia scoparia) [13]; [19]): 40; Plant response rating, Kochia (Kochia (Kochia scoparia) [13]; [20]): 20; Plant response rating, Ragweed [14, 19]: 30; Plant response rating, Ragweed [14, 20]: 0; Plant response rating, Wheat [15, 19]: 40; Plant response rating, Wheat [15, 20]: 0; Plant response rating, Ryegrass, Italian [16, 19]: 30; Plant response rating, Ryegrass, Italian [16, 20]: 20; Plant response rating, Pigweed [17, 19]: 20; Plant response rating, Pigweed [17, 20]: 0; Plant response rating, Barnyardgrass [18, 19]: 90; Plant response rating, Barnyardgrass [18, 20]: 80
Cc1cccc(C2CNC(=O)C2C(=O)Nc2cccc(F)c2F)c1 (racemic) [Compound 373]	80	90	0	30	0	30	30	40	0	20	90	90	100	0	20	60	30	30	70	40	Plant response rating, Blackgrass [12, 19]: 40; Plant response rating, Blackgrass [12, 20]: 20; Plant response rating, Corn (corn (Zea mays); [19]): 50; Plant response rating, Corn (corn (Zea mays); [20]): 20; Plant response rating, Kochia (Kochia (Kochia scoparia) [13]; [19]): 40; Plant response rating, Kochia (Kochia (Kochia scoparia) [13]; [20]): 0; Plant response rating, Ragweed [14, 19]: 0; Plant response rating, Ragweed [14, 20]: 0; Plant response rating, Wheat [15, 19]: 70; Plant response rating, Wheat [15, 20]: 20; Plant response rating, Ryegrass, Italian [16, 19]: 20; Plant response rating, Ryegrass, Italian [16, 20]: 30; Plant response rating, Pigweed [17, 19]: 30; Plant response rating, Pigweed [17, 20]: 20; Plant response rating, Barnyardgrass [18, 19]: 80; Plant response rating, Barnyardgrass [18, 20]: 80
CC(C)Oc1cccc(C2CNC(=O)C2C(=O)Nc2ccc(F)cc2F)c1 (racemic) [Compound 377]	90	90	50	80	0	0	20	60	50	70	90	90	100	0	25	60	70	60	80	80	Plant response rating, Blackgrass [12, 19]: 70; Plant response rating, Blackgrass [12, 20]: 50; Plant response rating, Corn (corn (Zea mays); [19]): 50; Plant response rating, Corn (corn (Zea mays); [20]): 0; Plant response rating, Kochia (Kochia (Kochia scoparia) [13]; [19]): 60; Plant response rating, Kochia (Kochia (Kochia scoparia) [13]; [20]): 30; Plant response rating, Ragweed [14, 19]: 60; Plant response rating, Ragweed [14, 20]: 40; Plant response rating, Wheat [15, 19]: 50; Plant response rating, Wheat [15, 20]: 0; Plant response rating, Ryegrass, Italian [16, 19]: 50; Plant response rating, Ryegrass, Italian [16, 20]: 30; Plant response rating, Pigweed [17, 19]: 30; Plant response rating, Pigweed [17, 20]: 0; Plant response rating, Barnyardgrass [18, 19]: 90; Plant response rating, Barnyardgrass [18, 20]: 90
CCCOc1cccc(C2CNC(=O)C2C(=O)Nc2cccc(F)c2F)c1 (racemic) [Compound 380]	50	90	0	40	0	0	0	20	0	30	70	90	0	0	0	0	50	20	70	30	Plant response rating, Blackgrass [12, 19]: 40; Plant response rating, Blackgrass [12, 20]: 30; Plant response rating, Corn (corn (Zea mays); [19]): 0; Plant response rating, Corn (corn (Zea mays); [20]): 0; Plant response rating, Kochia (Kochia (Kochia scoparia) [13]; [19]): 0; Plant response rating, Kochia (Kochia (Kochia scoparia) [13]; [20]): 0; Plant response rating, Ragweed [14, 19]: 0; Plant response rating, Ragweed [14, 20]: 0; Plant response rating, Wheat [15, 19]: 20; Plant response rating, Wheat [15, 20]: 0; Plant response rating, Ryegrass, Italian [16, 19]: 0; Plant response rating, Ryegrass, Italian [16, 20]: 0; Plant response rating, Pigweed [17, 19]: 0; Plant response rating, Pigweed [17, 20]: 0; Plant response rating, Barnyardgrass [18, 19]: 80; Plant response rating, Barnyardgrass [18, 20]: 50
